Source: the supplement of paper PMC10307832

Columns and labels:
Assay in all cases: relative viability (nuclei count vs DMSO), 5 days (fraction); higher = more cells survive
AGI-6780 + Crizotinib = compound: O=C(Nc1cccc(C(F)(F)F)c1)Nc1cc(S(=O)(=O)NC2CC2)ccc1-c1ccsc1 [AGI-6780] + C[C@@H](Oc1cc(-c2cnn(C3CCNCC3)c2)cnc1N)c1c(Cl)ccc(F)c1Cl [Crizotinib] (partner 1 µM)
Procedure, shortened: (§1)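 The day after seeding in 1536-well plates, lung cancer cell lines were treated by pin tool with a single drug, or with a fixed anchor-drug dose together with five library-drug doses (not always all listed) in √10 steps. After 5 days, a combined fix-and-stain solution (final 0.05% Triton X-100, 1% formaldehyde, 1 ug/ml Hoechst) was added. Nuclei counted on 4× images gave relative viability as treated counts over vehicle counts, reported as the median of duplicate plates.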

AGI-6780 + Decitabine = compound: O=C(Nc1cccc(C(F)(F)F)c1)Nc1cc(S(=O)(=O)NC2CC2)ccc1-c1ccsc1 [AGI-6780] + Nc1ncn([C@H]2C[C@H](O)[C@@H](CO)O2)c(=O)n1 [Decitabine] (partner 2 µM)
Procedure, shortened: as §1

AGI-6780 + Lapatinib = compound: O=C(Nc1cccc(C(F)(F)F)c1)Nc1cc(S(=O)(=O)NC2CC2)ccc1-c1ccsc1 [AGI-6780] + CS(=O)(=O)CCNCc1ccc(-c2ccc3ncnc(Nc4ccc(OCc5cccc(F)c5)c(Cl)c4)c3c2)o1 [Lapatinib] (partner 2 µM)
Procedure, shortened: as §1

AGI-6780 + Tozasertib = compound: O=C(Nc1cccc(C(F)(F)F)c1)Nc1cc(S(=O)(=O)NC2CC2)ccc1-c1ccsc1 [AGI-6780] + Cc1cc(Nc2cc(N3CCN(C)CC3)nc(Sc3ccc(NC(=O)C4CC4)cc3)n2)n[nH]1 [Tozasertib] (partner 0.1 µM)
Procedure, shortened: as §1

| Cell Line | relative viability (AGI-6780 + Crizotinib; first compound 0.08 µM) | relative viability (AGI-6780 + Crizotinib; first compound 0.253 µM) | relative viability (AGI-6780 + Crizotinib; first compound 0.8 µM) | relative viability (AGI-6780 + Crizotinib; first compound 2.53 µM) | relative viability (AGI-6780 + Crizotinib; first compound 8 µM) | relative viability (AGI-6780 + Decitabine; first compound 0.08 µM) | relative viability (AGI-6780 + Decitabine; first compound 0.253 µM) | relative viability (AGI-6780 + Decitabine; first compound 0.8 µM) | relative viability (AGI-6780 + Decitabine; first compound 2.53 µM) | relative viability (AGI-6780 + Decitabine; first compound 8 µM) | relative viability (AGI-6780 + Lapatinib; first compound 0.08 µM) | relative viability (AGI-6780 + Lapatinib; first compound 0.253 µM) | relative viability (AGI-6780 + Lapatinib; first compound 0.8 µM) | relative viability (AGI-6780 + Lapatinib; first compound 2.53 µM) | relative viability (AGI-6780 + Lapatinib; first compound 8 µM) | relative viability (AGI-6780 + Tozasertib; first compound 0.08 µM) | relative viability (AGI-6780 + Tozasertib; first compound 0.253 µM) | relative viability (AGI-6780 + Tozasertib; first compound 0.8 µM) | relative viability (AGI-6780 + Tozasertib; first compound 2.53 µM) | relative viability (AGI-6780 + Tozasertib; first compound 8 µM) |
| --- | --- | --- | --- | --- | --- | --- | --- | --- | --- | --- | --- | --- | --- | --- | --- | --- | --- | --- | --- | --- |
| HCC-15 | 0.831 | 0.833 | 0.834 | 0.813 | 0.825 | 0.677 | 0.756 | 0.666 | 0.546 | 0.697 | 0.896 | 0.824 | 0.971 | 0.83 | 0.856 | 0.625 | 0.438 | 0.547 | 0.186 | 0.458 |
| HCC-44 | 0.769 | 0.811 | 0.82 | 0.855 | 0.821 | 0.926 | 0.977 | 0.997 | 0.94 | 0.968 | 0.989 | 1 | 1.03 | 0.96 | 1.04 | 0.831 | 1.02 | 1.25 | 0.981 | 0.814 |
| HCC-78 | 0.378 | 0.337 | 0.422 | 0.353 | 0.343 | 0.604 | 0.695 | 0.708 | 0.661 | 0.688 | 0.66 | 0.702 | 0.821 | 0.485 | 0.992 | – | 0.404 | 0.452 | 0.304 | 0.438 |
| HCC-366 | 0.606 | 0.56 | 0.445 | 0.335 | 0.374 | 0.341 | 0.304 | 0.39 | 0.308 | 0.355 | 1.05 | 1.08 | 1.01 | 1.1 | 1.05 | 0.102 | 0.184 | 0.0941 | 0.0598 | 0.0437 |
| HCC-827 | 0.965 | 0.9 | 0.861 | 0.981 | 0.943 | 0.331 | 0.314 | 0.39 | 0.29 | 0.336 | 0.201 | 0.215 | 0.197 | 0.191 | 0.179 | 0.226 | 0.433 | 0.41 | 0.405 | 0.432 |
| HOP-62 | 0.857 | 0.919 | 0.971 | 0.731 | 0.502 | 0.199 | 0.264 | 0.235 | 0.25 | 0.218 | 0.974 | 0.888 | 0.965 | 1.06 | 1.06 | 0.328 | 0.366 | 0.398 | 0.302 | 0.408 |
| LCLC-103H | 1.08 | 1.12 | 1 | 1.03 | 1.01 | 0.768 | 0.824 | 0.714 | 0.726 | 0.753 | – | – | – | – | – | 0.492 | 0.475 | 0.51 | 0.451 | 0.562 |
| NCI-H441 | 0.766 | 0.988 | 1.05 | 0.513 | 0.887 | 0.221 | 0.28 | 0.25 | 0.204 | 0.241 | – | – | – | – | – | 0.608 | 0.733 | 0.474 | 0.415 | 0.599 |
| NCI-H1299 | 0.995 | 0.956 | 1.01 | 0.945 | 0.941 | – | – | – | – | – | 1.01 | 0.978 | 0.925 | 0.929 | 0.968 | – | – | – | – | – |
| NCI-H1395 | – | – | – | – | – | 0.738 | 0.789 | 0.747 | 0.676 | 0.742 | 0.941 | 1.06 | 1.01 | – | 1.04 | 0.778 | 0.774 | 0.893 | 0.666 | 0.674 |
| NCI-H1563 | 0.943 | 0.827 | 0.828 | 0.858 | 0.903 | – | – | – | – | – | 1.03 | 0.924 | 0.987 | 0.881 | 0.903 | – | – | – | – | – |
| NCI-H1648 | – | – | – | – | – | 0.551 | 0.418 | 0.506 | 0.459 | 0.627 | – | – | – | – | – | 0.45 | 0.581 | 0.639 | 0.401 | 0.378 |
| NCI-H1703 | 0.906 | 0.612 | 1.11 | 0.665 | 0.824 | – | – | – | – | – | 1.11 | 0.87 | 1.82 | 1.13 | 0.93 | – | – | – | – | – |
| NCI-H1792 | 0.836 | 0.993 | 1.07 | 0.931 | 0.989 | 0.665 | 0.437 | 0.536 | – | 0.49 | 0.805 | 0.893 | 1.14 | 0.883 | 0.914 | – | – | – | – | – |
| NCI-H1793 | – | – | – | – | – | 0.519 | 0.539 | 0.415 | 0.342 | 0.549 | 0.819 | 0.811 | 0.779 | 0.491 | 0.723 | 0.355 | 0.318 | 0.351 | 0.332 | 0.312 |
| NCI-H2228 | 0.492 | 0.584 | 0.453 | 0.368 | 0.512 | – | – | – | – | – | 1.2 | 1.05 | 0.825 | 0.771 | 1.27 | 0.281 | 0.278 | 0.228 | 0.226 | 0.201 |
| NCI-H2342 | – | – | – | – | – | 0.727 | 0.733 | 0.732 | 0.65 | 0.99 | – | – | – | – | – | 0.56 | 0.52 | 0.593 | 0.43 | 0.597 |
